Results on 2 compounds are retold here after paper PMC12261233, “Photoactivatable Cyclometalated Ir(III) Compound Penetrates the Blood-Brain Barrier in 3D Spheroidal and Advanced 3D Organoid Models of Inherently Resistant and Aggressive Brain Tumors” (ACS Pharmacology & Translational Science, 2025).

One test relates to U87MG cells. Description: Iridium uptake in Transwell binary coculture BBB model (ICP-MS), U87MG. It is filed as cell-based, human. To be noted: 24 h. Here is the method: (§1) The cellular uptake of anticancer compounds after penetrating the BBB is crucial for their efficacy in treating brain tumors. Understanding the extent of cellular uptake provides insights into the distribution and localization of these compounds within brain tumor cells, making such studies essential for assessing their potential efficacy. We utilized the static Transwell binary coculture BBB model, comprising an […] hCMEC/D3 cell line (representing the BBB) and a glioblastoma U87MG cell line. In this model, hCMEC/D3 cells were seeded on the apical side of the Transwell, while U87MG cells were seeded on the basolateral side. […] After a 24-h incubation, cells were harvested, counted, and the iridium uptake by both cell lines was analyzed using ICP-MS. […]
(§2) To confirm that the tested compounds can effectively target and accumulate in the desired U87MG glioblastoma cells, a coculture model was employed to monitor cellular uptake in both hCMEC/D3 cells and U87MG cells. […] The total iridium uptake by U87MG or hCMEC/D3 cells was analyzed 24 h after treatment. In brief, the apical and basolateral parts were separated, and each cellular model was harvested by trypsinization, pelleted by centrifugation, and counted. […] The final iridium content was determined through ICP-MS analysis. The experiments were replicated in triplicate, and the data are expressed as nanograms of iridium per one million cells.

In the next test the test system is hCMEC/D3 cells. Description: Iridium uptake in Transwell binary coculture BBB model (ICP-MS), hCMEC/D3. The class given is cell-based, human. Particulars: 10 μM applied apically, 24 h. Here is the method:
as §1, §2

The nature of test [1]: Photocatalytic oxidation of NADH under blue light. The class given is biochemical. To be noted: blue light 465 nm, 4.8 mW cm^–2; NADH 100 µM, complex 5 µM. Here is the method: Photostability is essential for PDT agents, as photobleaching can compromise their effectiveness. […] Control experiments in the absence of Ir(III) complexes (Figure S24) or light (Figure S25) corroborated the photocatalytic character of this transformation. […] Additionally, singlet oxygen (^1O2) is the primary cytotoxic species in Type II PDT. , The ability of complexes Ir3–Ir5 and Ir10 to generate singlet oxygen was evaluated by measuring the decrease in […] (DPBF) absorbance at 411 nm under blue light irradiation (Figure S26). […] This confirmed the production of hydroxyl radicals, particularly with complexes Ir3 and Ir10, after 8 min of irradiation (Figure S29).
1. Photocatalytic properties of complexes Ir1−Ir10 in cell-free media.
1.1. Photooxidation of NADH.
The ability of the complexes to photocatalyse the oxidation of NADH was evaluated by recording the absorption spectra of NADH (100 µM) in the presence of complex (5 µM) in PBS (5% DMF) upon blue light irradiation (EXPO-Panels from Luzchem (Canadá)) (465 nm, 5.0 […]
1.2. Quantum yields for the generation of 1O2. […]
Where ΦΔR is the reference quantum yield, mR and mS are the slopes of the reference and sample, respectively, and AR and AS are the absorbance of the reference and the sample at the […]

On to `CCCCn1c2[n+](c3cc(C(=O)OC)ccc31)[Ir-3]13([Cl])([c]4ccccc4-2)[n+]2ccccc2-c2cc(-c4ccc(C)cc4)cc([n+]21)-c1cccc[n+]13.F[P-](F)(F)(F)(F)F` [Ir4], for which the “iridium uptake by U87MG cells” value in the test on U87MG cells (10 μM applied apically, binary coculture BBB model, basolateral cells) is recorded as 108 ± 14 ng Ir/10^6 cells. For the same compound, the “accumulation in U87MG cells compared to hCMEC/D3 cells” value with U87MG cells (10 μM, coculture) was “more than 2 fold”. In addition, the “iridium uptake by hCMEC/D3 cells” value with hCMEC/D3 cells is recorded as 47 ± 7 ng Ir/10^6 cells.
For the compound `Cc1ccc(-c2cc3[n+]4c(c2)-c2cccc[n+]2[Ir-3]42([Cl])([c]4cc5ccccc5cc4-c4n(Cc5ccc(C(F)(F)F)cc5)c5ccccc5[n+]42)[n+]2ccccc2-3)cc1.F[P-](F)(F)(F)(F)F` [Ir3], the “Turnover Frequency (TOF) of NADH photo-oxidation” value in test [1] is “about 110 h^–1”.
